According to US20130296370A1, “COMPOSITION COMPRISING A PHOTOACTIVATABLE LARVICIDE” (UNIVERSITA DEGLI STUDI DI PADOVA, priority 2010, published 2013):

Assays:
[1] = test system: An. stephensi; assay: Laboratory-scale tray larvicide test; format: in vivo; details: carrier mouse food; 6 mg per tray; loading concentration 0.5 μM; fluorescent lamp
Experimental: Laboratory strains of Anopheles stephensi, M and S (Kisumu), chromosomal forms of An. gambiae, An. arabiensis and Aedes aegypti, as well as field-collected Anopheles spp. and Aedes spp. larvae were used. Laboratory mosquitoes were maintained at 28-30° C., >90% RH and a photoperiod of 12 h. Light intensity ranged between 0.5 mW/cm^2 (fluorescent lamp) and 185 mW/cm^2 (sunlight).
C12 or C14 porphyrin solutions at 5-100 μM concentrations were pre-incubated at room temperature in the darkness with 15-60 mg of carrier (either Eudragit or ground mouse food or cat food) for 4-12 hours under gentle shaking. After incubation the solutions were filtered, and the loaded carrier was dried at room temperature or in an oven (45° C.).
One litre capacity, transparent plastic trays containing wells with each 500 ml water and 6-60 mg of the composition of the present invention were prepared. Batches of 60-100 L2, L3 or L4 larvae were introduced into the trays after sunset (or artificial light off). Larval mortality was evaluated the next day starting from 8.00 am, and the time required to reach at least 90% mortality was recorded. Larvae not moving or not showing an escaping response at probing were defined as dead or dying, and counted together (Tables 2 and 3). Pupae occasionally formed throughout the irradiation time were discarded and excluded from the evaluation. An equal number of batches of larvae prepared in the same way were kept in continuous darkness and mortality was evaluated similarly, to assess toxicity in the dark.
Light intensity range: 0.5-185 mW/cm^2.

[2] = test system: Aedes aegypti larvae; assay: C14 porphyrin toxicity in the dark; format: in vivo; details: for emerged adults (%) / emerged adults (count) / adult % survival after light exposure: 5 μM C14; for emerged adults (%) / emerged adults (count): pooled data; for adult % survival after light exposure: 12 h-long irradiation 1.0-4.0 mW/cm^2
Experimental: All the experiments were carried out in a climatic chamber at 28±2° C. with a regulated photoperiod of 12 hours. Transparent plastic trays, containing 500 ml C14 solutions or spring water were employed. Typically, 5±1 days old, 3rd-early 4th instar Aedes aegypti larvae were used. All the experiments were replicated three times.
At the end of the incubation period, dead and living larvae were counted in each tray. Larvae were then washed with tap water, and transferred to new trays containing spring water and PFP. Trays were kept in the dark until adults emerged. Adults were counted and exposed to light (intensity 1.0-4.0 mW/cm^2) for 12 hours, and their mortality was evaluated at the end of the irradiation period.

[3] = test system: A. aegypti larvae; assay: Larvicidal efficacy of C14 porphyrin-loaded PFP; format: in vivo; details: 3 hours irradiation
Experimental: Food particles (70 mg) were added at the time of introduction of the larvae (n=50, see methods for details). Arithmetic means of percent dead, dying and living larvae after 3 hours irradiation (intensity 1.0-4.0 mW/cm^2). Error bars represent standard deviations, (n=3 replicates of 50 larvae each).
Trays containing 5 μM C14 porphyrin solution and 70 mg PFP (wherein PFP means powdered food pellet (PFP) with final particle diameter of 5-500 μm diameter obtained by crushing a standard food pellet for laboratory rodents, namely 4RF18 GLP (Mucedola Srl, Italy) using an electric blender and then sieving at mesh diameter 500 μm) were incubated at 28±2° C. for 5 days in the dark. The solution was then filtered using Whatman qualitative filter papers (Whatman International Ltd., UK). The eluted C14 solution was conserved, and the incubated PFP retained on the filter paper was washed with 10 ml distilled water before further use. Experimental groups were designed as follows: 1) filtered, C14-incubated PFP in spring water (group A); 2) C14 solution eluate, added with 70 mg fresh PFP (group B); 3) 5 μM C14 solution incubated without PFP for 5 days in the dark, added with 70 mg fresh PFP (group C); 4) freshly prepared 5 μM C14 solution, added with 70 mg PFP (group D); 5) spring water added with 70 mg fresh PFP (control group). Fifty larvae, fasted for 24 hours, were added to each tray and incubated in the dark for 12 hours. The treated or untreated PFP was added at the time of introduction of the larvae, in all the experimental groups. The trays were then exposed to a light intensity of 1.0-4.0 mW/cm^2 and dead, dying and living larvae were counted 1 to 3 hours after the beginning of the irradiation.

[4] = Aggregation of C14 by Beer-Lambert titration; format: physicochemical; details: aqueous solution; linear plot of Soret band at 424 nm
Experimental: To test the possible occurrence of aggregation processes for this porphyrin, the intensity of the Soret band was titrated as a function of the porphyrin concentration according to the Beer-Lambert law. In a first phase of our investigations, the data were calculated up to a porphyrin concentration of 0.16 mM (FIG. 1A), since the optical density of more concentrated porphyrin solutions became too large even using cuvettes of 0.1 cm optical path. […] This spectral feature is generally attributed to the presence of porphyrin oligomers (Reddi E, Ceccon M, Valduga G, Joni G, Bommer J C, et al. (2002) Photophysical properties and antibacterial activity of meso-substituted cationic porphyrins. Photochem Photobiol 75: 462-470). To test the possibility that the hydrophobicity imparted by the long alkyl chain of C14 may favour the occurrence of some aggregation as the concentration increases, the titration was extended to larger molarities calculating the absorbance values at 404 nm instead of 424 nm (FIG. 2B).

[5] = group B: C14 solution eluate with 70 mg fresh PFP

SMILES: CCCCCCCCCCCCCC[n+]1ccc(-c2c3nc(c(-c4cc[n+](C)cc4)c4ccc([nH]4)c(-c4cc[n+](C)cc4)c4nc(c(-c5cc[n+](C)cc5)c5ccc2[nH]5)C=C4)C=C3)cc1.Cc1ccc(S(=O)(=O)[O-])cc1.Cc1ccc(S(=O)(=O)[O-])cc1.Cc1ccc(S(=O)(=O)[O-])cc1.Cc1ccc(S(=O)(=O)[O-])cc1 [C14, meso-tri(N-methyl-pyridyl), mono(N-tetradecyl-pyridyl)porphine]
- Time to reach ≧90% mortality [1]: 1 h
- emerged adults (%) ([2]; dark incubation 3 hours): (97.9) %
- emerged adults (count) ([2]; dark incubation 3 hours): 138/141
- emerged adults (%) ([2]; dark incubation 8 hours): (100) %
- emerged adults (count) ([2]; dark incubation 8 hours): 128/128
- emerged adults (%) ([2]; dark incubation 24 hours): (97.9) %
- emerged adults (count) ([2]; dark incubation 24 hours): 138/141
- adult % survival after light exposure ([2]; larval dark incubation 3 hours): 100%
- adult % survival after light exposure ([2]; larval dark incubation 8 hours): 100%
- adult % survival after light exposure ([2]; larval dark incubation 24 hours): 100%
- larval mortality in the dark ([2]; 5 μM C14 solution, irrespectively of the duration of incubation): No mortality
- dying larvae [3, 5]: 49.8%
- mortality [3, 5]: 38.4%
- mortality ([3]; group C: 5 μM C14 solution incubated 5 days in the dark without PFP, fresh PFP added): 78.2%
- mortality ([3]; group D: freshly prepared 5 μM C14 solution with 70 mg PFP): 87.1%
- concentration up to which a purely monomeric state is indicated [4]: up to 0.16 mM
